The compounds below were run against PD-1/PD-L1 (Homo sapiens (Human), UniProt Q9NZQ7) (assay: PD-1/PD-L1 Homogenous Time-Resolved Fluorescence (HTRF) binding assay). Details: PD-L1-His 10 nM, PD-1-Ig 20 nM.
Description: The ability of the compounds of formula (I) to bind to PD-L1 was investigated using a PD-1/PD-L1 Homogenous Time-Resolved Fluorescence (HTRF) binding assay.
Homogenous Time-Resolved Fluorescence (HTRF) binding assay.
The interaction of PD-1 and PD-L1 can be assessed using soluble, purified preparations of the extracellular domains of the two proteins. The PD-1 and PD-L1 protein extracellular domains were expressed as fusion proteins with detection tags, for PD-1, the tag was the Fc portion of Immunoglobulin (PD-1-Ig) and for PD-L1 it was the 6 histidine motif (PD-L1-His). All binding studies were performed in an HTRF assay buffer consisting of dPBS supplemented with 0.1% […] bovine serum albumin and 0.05% (v/v) Tween-20. For the h/PD-L1-His binding assay, inhibitors were pre-incubated with PD-L1-His (10 nM final) for 15m in 4 μl of assay buffer, followed by addition of PD-1-Ig (20 nM final) in 1 µl of assay buffer and further incubation for 15m. HTRF detection was achieved using europium crypate-labeled anti-Ig (1 nM final) and allophycocyanin (APC) labeled anti-His (20 nM final). Antibodies were diluted in HTRF detection buffer and 5 μl was dispensed on top of the binding reaction. The reaction mixture was allowed to equilibrate for 30 minutes and the resulting signal (665 nm/620 nm ratio) was obtained using an EnVision fluorometer. Additional binding assays were established between the human proteins PD-1-Ig/PD-L2-His (20 & 5 nM, respectively) and CD8O-His/PD-L1-Ig (100 & 10 nM, respectively).
Recombinant Proteins: Human PD-1 (25-167) with a C-terminal human Fc domain of immunoglobulin G (Ig) epitope tag [hPD-1 (25-167)-3S-IG] and human PD-L1 (18-239) with a C-terminal His epitope tag [hPD-L1(18-239)-TVMV-His] were expressed in HEK293T cells and purified sequentially by ProteinA affinity chromatography and size exclusion chromatography. Human PD-L2-His and CD8O-His was obtained through commercial sources.
The table below lists the IC50 values for representative examples of this disclosure measured in the PD-1/PD-L1 Homogenous Time-Resolved Fluorescence (HTRF) binding assay.

Sequence of PD-1/PD-L1 (Q9NZQ7 other isoform, or with tags, fused parts or gaps): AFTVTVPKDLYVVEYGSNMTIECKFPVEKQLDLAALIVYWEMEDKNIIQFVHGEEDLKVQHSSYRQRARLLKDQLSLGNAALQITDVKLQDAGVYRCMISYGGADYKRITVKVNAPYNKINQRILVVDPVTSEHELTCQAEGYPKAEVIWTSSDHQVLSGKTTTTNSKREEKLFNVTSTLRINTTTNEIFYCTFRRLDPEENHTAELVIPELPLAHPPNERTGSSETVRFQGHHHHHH

Row | SMILES | IC50
1 | CN1CCCC(COc2cccc(-c3cccc4c3CCC4Oc3cc(OCc4cncc(C#N)c4)c(CN4CCCC[C@H]4C(=O)O)cc3Cl)c2Cl)C1 (stereo partly drawn) [Example 1001, (2S)-1-(5-Chloro-4-((4-(2-chloro-3-((1-methylpiperidin-3-yl)methoxy)phenyl)-2,3-dihydro-1H-inden-1-yl)oxy)-2-((5-cyanopyridin-3-yl)methoxy)benzyl)piperidine-2-carboxylic acid] | 1.4 nM
2 | CN1CCCC(COc2cccc(-c3cccc4c3CCC4Oc3cc(OCc4cncc(C#N)c4)c(CN[C@](C)(CO)C(=O)O)cc3Cl)c2Cl)C1 (stereo partly drawn) [Example 1002, (2R)-2-((5-Chloro-4-((4-(2-chloro-3-((1-methylpiperidin-3-yl)methoxy)phenyl)-2,3-dihydro-1H-inden-1-yl)oxy)-2-((5-cyanopyridin-3-yl)methoxy)benzyl)amino)-3-hydroxy-2-methylpropanoic acid] | 0.9 nM
3 | CN1CCCC(COc2cccc(-c3cccc4c3CCC4Oc3cc(OCc4cncc(C#N)c4)c(CO)cc3Cl)c2Cl)C1 (centres unmarked) [Example 1003, 5-((4-Chloro-5-((4-(2-chloro-3-((1-methylpiperidin-3-yl)methoxy)phenyl)-2,3-dihydro-1H-inden-1-yl)oxy)-2-(hydroxymethyl)phenoxy)-methyl)nicotinonitrile] | 9.1 nM
4 | CN1CCC[C@@H](COc2cccc(-c3cccc4c3CC[C@@H]4Oc3cc(OCc4cncc(C#N)c4)c(CN[C@](C)(CO)C(=O)O)cc3Cl)c2Cl)C1 [Example 1004] | 3.9 nM
5 | CN1CCC[C@@H](COc2cccc(-c3cccc4c3CC[C@@H]4Oc3cc(OCc4cncc(C#N)c4)c(CO)cc3Cl)c2Cl)C1 [Example 1005, 5-((4-chloro-5-(((S)-4-(2-chloro-3-(((R)-1-methylpiperidin-3-yl)methoxy)phenyl)-2,3-dihydro-1H-inden-1-yl)oxy)-2-(hydroxymethyl)phenoxy)methyl)nicotinonitrile] | 10.6 nM
6 | CN1CCC[C@@H](COc2cccc(-c3cccc4c3CC[C@H]4Oc3cc(OCc4cncc(C#N)c4)c(CN[C@](C)(CO)C(=O)O)cc3Cl)c2Cl)C1 [Example 1006, (R)-2-((5-chloro-4-(((R)-4-(2-chloro-3-(((R)-1-methylpiperidin-3-yl)methoxy)phenyl)-2,3-dihydro-1H-inden-1-yl)oxy)-2-((5-cyanopyridin-3-yl)methoxy)benzyl)amino)-3-hydroxy-2-methylpropanoic acid] | 3.5 nM
7 | CN1CCC[C@@H](COc2cccc(-c3cccc4c3CC[C@H]4Oc3cc(OCc4cncc(C#N)c4)c(CO)cc3Cl)c2Cl)C1 [Example 1007, 5-((4-chloro-5-(((R)-4-(2-chloro-3-(((R)-1-methylpiperidin-3-yl)methoxy)phenyl)-2,3-dihydro-1H-inden-1-yl)oxy)-2-(hydroxymethyl)phenoxy)methyl)nicotinonitrile] | 4.3 nM
8 | CN1CCC[C@H](COc2cccc(-c3cccc4c3CC[C@@H]4Oc3cc(OCc4cncc(C#N)c4)c(CN[C@](C)(CO)C(=O)O)cc3Cl)c2Cl)C1 [Example 1008, (R)-2-((5-chloro-4-(((S)-4-(2-chloro-3-(((S)-1-methylpiperidin-3-yl)methoxy)phenyl)-2,3-dihydro-1H-inden-1-yl)oxy)-2-((5-cyanopyridin-3-yl)methoxy)benzyl)amino)-3-hydroxy-2-methylpropanoic acid] | 3 nM
9 | CN1CCC[C@H](COc2cccc(-c3cccc4c3CC[C@@H]4Oc3cc(OCc4cncc(C#N)c4)c(CO)cc3Cl)c2Cl)C1 [Example 1009, 5-((4-chloro-5-(((S)-4-(2-chloro-3-(((S)-1-methylpiperidin-3-yl)methoxy)phenyl)-2,3-dihydro-1H-inden-1-yl)oxy)-2-(hydroxymethyl)phenoxy)methyl)nicotinonitrile] | 24.1 nM
10 | CN1CCC[C@H](COc2cccc(-c3cccc4c3CC[C@H]4Oc3cc(OCc4cncc(C#N)c4)c(CN[C@](C)(CO)C(=O)O)cc3Cl)c2Cl)C1 [Example 1010, (R)-2-((5-chloro-4-(((R)-4-(2-chloro-3-(((S)-1-methylpiperidin-3-yl)methoxy)phenyl)-2,3-dihydro-1H-inden-1-yl)oxy)-2-((5-cyanopyridin-3-yl)methoxy)benzyl)amino)-3-hydroxy-2-methylpropanoic acid] | 2 nM
11 | CN1CCC[C@H](COc2cccc(-c3cccc4c3CC[C@H]4Oc3cc(OCc4cncc(C#N)c4)c(CO)cc3Cl)c2Cl)C1 [Example 1011, 5-((4-chloro-5-(((R)-4-(2-chloro-3-(((S)-1-methylpiperidin-3-yl)methoxy)phenyl)-2,3-dihydro-1H-inden-1-yl)oxy)-2-(hydroxymethyl)phenoxy)methyl)nicotinonitrile] | 10.4 nM
12 | Cc1c(OCCCN2CC[C@@H](O)C2)cccc1-c1cccc2c1CCC2Oc1cc(OCc2cncc(C#N)c2)c(CN[C@](C)(CO)C(=O)O)cc1Cl (stereo partly drawn) [Example 1012, (2R)-2-((5-Chloro-2-((5-cyanopyridin-3-yl)methoxy)-4-((4-(3-(3-((R)-3-hydroxypyrrolidin-1-yl)propoxy)-2-methylphenyl)-2,3-dihydro-1H-inden-1-yl)oxy)benzyl)-amino)-3-hydroxy-2-methylpropanoic acid] | 1.8 nM
13 | Cc1c(OCCCN2CC[C@@H](O)C2)cccc1-c1cccc2c1CCC2Oc1cc(OCc2cncc(C#N)c2)c(CO)cc1Cl (stereo partly drawn) [Example 1013, 5-((4-Chloro-2-(hydroxymethyl)-5-((4-(3-(3-((R)-3-hydroxypyrrolidin-1-yl)propoxy)-2-methylphenyl)-2,3-dihydro-1H-inden-1-yl)oxy)phenoxy)methyl)nicotinonitrile] | 18.1 nM
14 | Cc1c(OCCCN2CC[C@@H](O)C2)cccc1-c1cccc2c1CCC2Oc1cc(OCc2cncc(C#N)c2)c(CN2CCCC[C@H]2C(=O)O)cc1Cl (stereo partly drawn) [Example 1014, (2S)-1-(5-Chloro-2-((5-cyanopyridin-3-yl)methoxy)-4-((4-(3-(3-((R)-3-hydroxypyrrolidin-1-yl)propoxy)-2-methylphenyl)-2,3-dihydro-1H-inden-1-yl)oxy)benzyl)-piperidine-2-carboxylic acid] | 5.8 nM
15 | Cc1c(OCCCN2CC[C@@H](O)C2)cccc1-c1cccc2c1CCC2Oc1cc(OCc2cncc(C#N)c2)c(CN[C@@H](CCO)C(=O)O)cc1Cl (stereo partly drawn) [Example 1015, (5-chloro-2-((5-cyanopyridin-3-yl)methoxy)-4-((4-(3-(3-((R)-3-hydroxypyrrolidin-1-yl)propoxy)-2-methylphenyl)-2,3-dihydro-1H-inden-1-yl)oxy)benzyl)-L-homoserine] | 1.9 nM
16 | CC(=O)NC1CCN(CCCOc2cccc(-c3cccc4c3CCC4Oc3cc(OCc4cncc(C#N)c4)c(CN[C@](C)(CO)C(=O)O)cc3Cl)c2Cl)CC1 (stereo partly drawn) [Example 1016, (2R)-2-((4-((4-(3-(3-(4-Acetamidopiperidin-1-yl)propoxy)-2-chlorophenyl)-2,3-dihydro-1H-inden-1-yl)oxy)-5-chloro-2-((5-cyanopyridin-3-yl)methoxy)benzyl)amino)-3-hydroxy-2-methylpropanoic acid] | 3.4 nM
17 | CC(=O)NC1CCN(CCCOc2cccc(-c3cccc4c3CCC4Oc3cc(OCc4cncc(C#N)c4)c(CN4CCCC[C@H]4C(=O)O)cc3Cl)c2Cl)CC1 (stereo partly drawn) [Example 1017, (2S)-1-(4-((4-(3-(3-(4-Acetamidopiperidin-1-yl)propoxy)-2-chlorophenyl)-2,3-dihydro-1H-inden-1-yl)oxy)-5-chloro-2-((5-cyanopyridin-3-yl)methoxy)benzyl)piperidine-2-carboxylic acid] | 0.2 nM
18 | CC(=O)NC1CCN(CCCOc2cccc(-c3cccc4c3CCC4Oc3cc(OCc4cncc(C#N)c4)c(CN[C@@H](CCO)C(=O)O)cc3Cl)c2Cl)CC1 (stereo partly drawn) [Example 1018, (4-((4-(3-(3-(4-Acetamidopiperidin-1-yl)propoxy)-2-chlorophenyl)-2,3-dihydro-1H-inden-1-yl)oxy)-5-chloro-2-((5-cyanopyridin-3-yl)methoxy)benzyl)-L-homoserine] | 2.9 nM
19 | C[C@](CO)(NCc1cc(Cl)c(OC2CCc3c(-c4cccc(OCCCNC[C@H](O)CO)c4Cl)cccc32)cc1OCc1cncc(C#N)c1)C(=O)O (stereo partly drawn) [Example 1019, (2R)-2-((5-chloro-4-((4-(2-chloro-3-(3-(((S)-2,3-dihydroxypropyl)amino)propoxy)phenyl)-2,3-dihydro-1H-inden-1-yl)oxy)-2-((5-cyanopyridin-3-yl)methoxy)benzyl)amino)-3-hydroxy-2-methylpropanoic acid] | 2.5 nM
20 | N#Cc1cncc(COc2cc(OC3CCc4c(-c5cccc(OCCCNC[C@H](O)CO)c5Cl)cccc43)c(Cl)cc2CO)c1 (stereo partly drawn) [Example 1020, 5-((4-Chloro-5-((4-(2-chloro-3-(3-(((S)-2,3-dihydroxypropyl)amino)propoxy)phenyl)-2,3-dihydro-1H-inden-1-yl)oxy)-2-(hydroxymethyl)phenoxy)methyl)nicotinonitrile] | 10.9 nM

Reference: US11578054B2, “Compounds useful as immunomodulators” (Bristol-Myers Squibb Company, priority 2018, dated 2023)
